What all share (format): cell-based
Experiment [1] concerns Leptosphaeria nodorum. In words: Microtest: activity against the wheat leaf spot pathogen Leptosphaeria nodorum (MTP, absorption at 405 nm). Particulars: 0.004 ppm, single compound; 7 days after inoculation, 18° C.
Experiment [2] relates to Phytophthora infestans. Particulars: 0.063 ppm, single compound; 7 days after inoculation, 18° C.
The subject of experiment [3] is Pyricularia oryzae. The following applies: single compound, 7 days after inoculation, 18° C.

This note sets out measurements from patent US9763448B2, “Fungicidal mixtures I comprising strobilurin-type fungicides” (BASF SE, priority 2013, dated 2017).

Structures are written as SMILES. Read-outs that look alike come from different tables or passages of the source.

`CC(O)(Cn1cncn1)c1ccc(Oc2ccc(Cl)cc2)cc1C(F)(F)F` (stereo not drawn) [II-6, 2-[4-(4-chlorophenoxy)-2-(trifluoromethyl)phenyl]-1-(1,2,4-triazol-1-yl)propan-2-ol]: the Observed efficacy in experiment [1] and in experiment [2] was 7% each time.
`OC(Cn1cncn1)(c1ccc(Oc2ccc(Cl)cc2)cc1C(F)(F)F)C1CC1` (stereo not drawn) [II-2, 1-[4-(4-chlorophenoxy)-2-(trifluoromethyl)phenyl]-1-cyclopropyl-2-(1,2,4-triazol-1-yl)ethanol]: in experiment [3] (0.016 ppm), the Observed efficacy was 6%.
Regarding `CNC(=O)C(=N/OC)/C(C)=C\COc1ccn(-c2ccc(Cl)cc2F)n1` [I-13, (Z,2E)-5-[1-(4-chloro-2-fluoro-phenyl)pyrazol-3-yl]oxy-2-methoxyimino-N,3-dimethyl-pent-3-enamide], the Observed efficacy stood at 7% in experiment [3] (0.00025 ppm), 21% in experiment [1] and 4% in experiment [2].
